Common to all, as to assay type: physicochemical
Data set [1] in a line: Thioflavin T (ThT) assay for physical stability (fibrillation). Particulars: 3 mg/ml, 100 mM acetate pH 4.5 with m-cresol, shaking at 37° C. Here is the method: Investigations were carried out to determine fibrillation tendencies under stress conditions by shaking at 37° C. within Fluoroskan Ascent FL.
For the tests in Fluoroskan Ascent FL, 200 μL sample were placed into a 96 well mictrotiter plate PS, flat bottom, Greiner Fluotrac No. 655076. Plates were sealed with Scotch Tape (Quiagen). Samples were stressed by continuous cycles of 10 s shaking at 960 rpm and 50 s rest period at 37° C. The kinetic was monitored by measuring fluorescence intensity every 20 minutes.
Peptides were diluted in a buffer system to a final concentration of 3 mg/ml. 20 μL of a 10.1 mM ThT solution in H2O were added to 2 mL of peptide solution to receive a final concentration of 100 μM ThT. For each sample eight replicates were tested.
Tht buffer system A) 100 mM Acetate pH 4.5 including m-cresol (100 mM Natriumacetat trihydrat, pH adjustment using 2N CH3COOH, 2.7 mg/mL m-cresol) Tht buffer system B) 100 mM citrate buffer pH 6.0
Lag time in hours in Thioflavin T (ThT) assay of peptide samples was determined in Tht buffer system A as described in Methods.

A short description of data set [2]: Chemical stability assessment (UPLC-UV, relative purity loss). Particulars: 1 mg/ml, 25 mM acetate buffer pH 4.5 with m-cresol (buffer system A). Here is the method: Prior to the chemical stability measurement of a peptide batch, its purity was determined through UPLC/MS. For stability testing the target concentration was 1 mg pure compound/ml. Therefore solutions from solid samples were prepared in a buffer system with a concentration of 1 mg/mL compound based on the previously determined % purity:
Chemical stability buffer system A) 25 mM acetate buffer pH4.5, 3 mg/mL L-Methionine, 2.7 mg/mL m-cresol, 18 mg/mL Glycerol 85%
Peptide solutions were filtered through […] pore size and filled into aliquots under aseptic conditions. At starting point UPLC-UV was performed by injection of 2 μl of the undiluted sample.
For chemical stability testing, aliquots were stored for 28 days at Sand 40° C. After this time course the samples were centrifuged for 15 min at 2500 RCF. Then 2 μl of the undiluted supernatant were analysed with UPLC-UV.
The chemical stability was rated through the relative loss of purity calculated by the equation: [(purity at starting point)−(purity after 28 days at X° C.)]/(purity at starting point)]*100%
The purity is calculated as [(peak area peptide)/(total peak area)]*100%
Peptide samples were prepared in Chemical stability buffer system A and chemical stability was assessed as described in Methods.

Data set [3] is described as follows: Solubility assessment (UPLC-UV). The note with it: acetate buffer pH 4.5, 2.7 mg/ml m-cresol (buffer system A), target 10 mg/ml. Here is the method:
Prior to the solubility measurement of a peptide batch, its purity was determined through UPLC/MS.
Therefore solutions from solid samples were prepared in a buffer systems with a concentration of 10 mg/mL compound based on the previously determined % purity:
Solubility buffer system A) Acetate Buffer pH 4.5, 100 mM sodium acetate trihydrate, 2.7 mg/ml m-Cresol
UPLC-UV was performed after 1 hour of gentle agitation from the supernatant, which was obtained after 15 min of centrifugation at 2500 RCF (relative centrifugal acceleration).
The solubility was determined by the comparison of the UV peak area of 2 μL-injection of a buffered sample diluted 1:10 with a standard curve of a reference peptide with known concentration. The different UV extinction coefficients of sample and reference peptide were calculated based on the different amino acid sequences and considered in the concentration calculation.
Peptide samples were prepared in solubility buffer system A and solubility was assessed as described in Methods.

Numbered stars: 1 amine (or outer) side, 2 acyl side, 3 side chain; on linkers, the order of the positions; unused ones are H or OH. Square brackets hold non-standard residues; d marks the D form. Side chains are listed from the residue outwards. Peptide text beside a SMILES is read from it. * marks the point of attachment. Adipoyl(4R-palmitoylamino) = CCCCCCCCCCCCCCCC(=O)N[C@H](CCC(=O)*)CC(=O)O; γGlu = O=C(O)[C@H](CCC(=O)[*:2])N[*:1]; Palmitoyl = CCCCCCCCCCCCCCCC(=O)*; AEEA = NCCOCCOCC(=O)O; Aib = CC(C)(N)C(=O)O A value given as a limit tells only on which side of the number the result lay.

Regarding `CCCCCCCCCCCCCCCC(=O)N[C@H](CCC(=O)NCCOCCOCC(=O)N[C@@H](CCC(=O)NCCCC[C@H](NC(=O)[C@H](CC(C)C)NC(=O)[C@H](CCCCN)NC(=O)[C@H](CO)NC(=O)[C@H](CC(C)C)NC(=O)[C@H](CC(=O)O)NC(=O)[C@H](CO)NC(=O)[C@@H](NC(=O)[C@H](Cc1ccccc1)NC(=O)[C@@H](NC(=O)CNC(=O)[C@H](CCC(N)=O)NC(=O)C(C)(C)NC(=O)[C@@H](N)Cc1c[nH]cn1)[C@@H](C)O)[C@@H](C)O)C(=O)N[C@@H](CCC(=O)O)C(=O)N[C@@H](CCC(=O)O)C(=O)N[C@@H](CCC(N)=O)C(=O)N[C@@H](CCCNC(=N)N)C(=O)N[C@@H](CCC(N)=O)C(=O)NC(C)(C)C(=O)N[C@@H](CCC(=O)O)C(=O)N[C@@H](Cc1ccccc1)C(=O)N[C@H](C(=O)N[C@@H](CCC(=O)O)C(=O)N[C@@H](Cc1c[nH]c2ccccc12)C(=O)N[C@@H](CC(C)C)C(=O)N[C@@H](CCCCN)C(=O)N[C@@H](C)C(=O)NCC(=O)NCC(=O)N[C@@H](Cc1c[nH]cn1)C(=O)N1CCC[C@H]1C(=O)N[C@@H](CO)C(=O)NC(C)(C)C(=O)N[C@@H](CCCCN)C(=O)N1CCC[C@H]1C(=O)N1CCC[C@H]1C(=O)N1CCC[C@H]1C(=O)N[C@@H](CCCCN)C(N)=O)[C@@H](C)CC)C(=O)O)CC(=O)O` [SEQ ID NO: 22, H-Aib-Q-G-T-F-T-S-D-L-S-K-L-K[gGlu-AEEA-gAAA-Palm]-E-E-Q-R-Q-Aib-E-F-I-E-W-L-K-A-G-G-H-P-S-Aib-K-P-P-P-K-NH2] (H-H[Aib]QGTFTSDLSKLK([γGlu-AEEA-Adipoyl(4R-palmitoylamino)])EEQRQ[Aib]EFIEWLKAGGHPS[Aib]KPPPK-NH2), in data set [1], the “Lag time before increase” value is more than 45 h.

In the case of `CCCCCCCCCCCCCCCC(=O)N[C@@H](CCC(=O)N[C@@H](CCC(=O)NCCCC[C@H](NC(=O)[C@H](CC(C)C)NC(=O)[C@H](CCCCN)NC(=O)[C@H](CO)NC(=O)[C@H](CC(C)C)NC(=O)[C@H](CC(=O)O)NC(=O)[C@H](CO)NC(=O)[C@@H](NC(=O)[C@H](Cc1ccccc1)NC(=O)[C@@H](NC(=O)CNC(=O)[C@H](CCC(N)=O)NC(=O)C(C)(C)NC(=O)[C@@H](N)Cc1c[nH]cn1)[C@@H](C)O)[C@@H](C)O)C(=O)N[C@@H](CCC(=O)O)C(=O)N[C@@H](CCC(=O)O)C(=O)N[C@@H](CCC(N)=O)C(=O)N[C@@H](CCCNC(=N)N)C(=O)N[C@@H](CCC(N)=O)C(=O)NC(C)(C)C(=O)N[C@@H](CCC(=O)O)C(=O)N[C@@H](Cc1ccccc1)C(=O)N[C@H](C(=O)N[C@@H](CCC(=O)O)C(=O)N[C@@H](Cc1c[nH]c2ccccc12)C(=O)N[C@@H](CC(C)C)C(=O)N[C@@H](CCCCN)C(=O)N[C@@H](C)C(=O)N[C@H](C)C(=O)NCC(=O)N[C@@H](Cc1c[nH]cn1)C(=O)N1CCC[C@H]1C(=O)N[C@@H](CO)C(=O)NC(C)(C)C(=O)N[C@@H](CCCCN)C(=O)N1CCC[C@H]1C(=O)N1CCC[C@H]1C(=O)N1CCC[C@H]1C(=O)N[C@@H](CCCCN)C(N)=O)[C@@H](C)CC)C(=O)O)C(=O)O` [SEQ ID NO: 11, H-Aib-Q-G-T-F-T-S-D-L-S-K-L-K[gGlu-gGlu-Palm]-E-E-Q-R-Q-Aib-E-F-I-E-W-L-K-A-dAla-G-H-P-S-Aib-K-P-P-P-K-NH2] (H-H[Aib]QGTFTSDLSKLK([γGlu-γGlu-Palmitoyl])EEQRQ[Aib]EFIEWLKA[dA]GHPS[Aib]KPPPK-NH2), in data set [2], the “Chemical stability [relative purity loss 28 days 40° C.] (%) at pH 4.5” value stood at 7.2%. Also, the “Lag time before increase” value in data set [1] is more than 45 h. The solubility (commonly the concentration that dissolves in the medium under given conditions) at 1 h in data set [3] is more than 9900 µg/mL.

For `CCCCCCCCCCCCCCCC(=O)N[C@H](CCC(=O)NCCOCCOCC(=O)N[C@@H](CCC(=O)NCCCC[C@H](NC(=O)[C@H](CC(C)C)NC(=O)[C@H](CCCCN)NC(=O)[C@H](CO)NC(=O)[C@H](CC(C)C)NC(=O)[C@H](CC(=O)O)NC(=O)[C@H](CO)NC(=O)[C@@H](NC(=O)[C@H](Cc1ccccc1)NC(=O)[C@@H](NC(=O)CNC(=O)[C@H](CCC(N)=O)NC(=O)C(C)(C)NC(=O)[C@@H](N)Cc1c[nH]cn1)[C@@H](C)O)[C@@H](C)O)C(=O)N[C@@H](CCC(=O)O)C(=O)N[C@@H](CCCCN)C(=O)N[C@@H](CCC(N)=O)C(=O)N[C@@H](CCCNC(=N)N)C(=O)N[C@@H](CCC(N)=O)C(=O)NC(C)(C)C(=O)N[C@@H](CCC(=O)O)C(=O)N[C@@H](Cc1ccccc1)C(=O)N[C@H](C(=O)N[C@@H](CCC(=O)O)C(=O)N[C@@H](Cc1c[nH]c2ccccc12)C(=O)N[C@@H](CC(C)C)C(=O)N[C@@H](CCCCN)C(=O)N[C@@H](C)C(=O)N[C@H](C)C(=O)NCC(=O)N[C@@H](Cc1c[nH]cn1)C(=O)N1CCC[C@H]1C(=O)N[C@@H](CO)C(=O)NC(C)(C)C(=O)N[C@@H](CCCCN)C(=O)N1CCC[C@H]1C(=O)N1CCC[C@H]1C(=O)N1CCC[C@H]1C(=O)N[C@@H](CCCCN)C(N)=O)[C@@H](C)CC)C(=O)O)CC(=O)O` [SEQ ID NO: 21, H-Aib-Q-G-T-F-T-S-D-L-S-K-L-K[gGlu-AEEA-gAAA-Palm]-E-K-Q-R-Q-Aib-E-F-I-E-W-L-K-A-dAla-G-H-P-S-Aib-K-P-P-P-K-NH2] (H-H[Aib]QGTFTSDLSKLK([γGlu-AEEA-Adipoyl(4R-palmitoylamino)])EKQRQ[Aib]EFIEWLKA[dA]GHPS[Aib]KPPPK-NH2), the “Lag time before increase” value in data set [1] is more than 45 h.

Turning to `CCCCCCCCCCCCCCCC(=O)NCCOCCOCC(=O)N[C@@H](CCC(=O)N[C@@H](CCC(=O)NCCCC[C@H](NC(=O)[C@H](CC(C)C)NC(=O)[C@H](CCCCN)NC(=O)[C@H](CO)NC(=O)[C@H](CC(C)C)NC(=O)[C@H](CC(=O)O)NC(=O)[C@H](CO)NC(=O)[C@@H](NC(=O)[C@H](Cc1ccccc1)NC(=O)[C@@H](NC(=O)CNC(=O)[C@H](CCC(N)=O)NC(=O)C(C)(C)NC(=O)[C@@H](N)Cc1c[nH]cn1)[C@@H](C)O)[C@@H](C)O)C(=O)N[C@@H](CCC(=O)O)C(=O)N[C@@H](CCCCN)C(=O)N[C@@H](CCC(N)=O)C(=O)N[C@@H](CCCNC(=N)N)C(=O)N[C@@H](CCC(N)=O)C(=O)NC(C)(C)C(=O)N[C@@H](CCC(=O)O)C(=O)N[C@@H](Cc1ccccc1)C(=O)N[C@H](C(=O)N[C@@H](CCC(=O)O)C(=O)N[C@@H](Cc1c[nH]c2ccccc12)C(=O)N[C@@H](CC(C)C)C(=O)N[C@@H](CCCCN)C(=O)N[C@@H](C)C(=O)NCC(=O)NCC(=O)N[C@@H](Cc1c[nH]cn1)C(=O)N1CCC[C@H]1C(=O)N[C@@H](CO)C(=O)NC(C)(C)C(=O)N[C@@H](CCCCN)C(=O)N1CCC[C@H]1C(=O)N1CCC[C@H]1C(=O)N1CCC[C@H]1C(=O)N[C@@H](CCCCN)C(N)=O)[C@@H](C)CC)C(=O)O)C(=O)O` [SEQ ID NO: 16, H-Aib-Q-G-T-F-T-S-D-L-S-K-L-K[gGlu-gGlu-AEEA-Palm]-E-K-Q-R-Q-Aib-E-F-I-E-W-L-K-A-G-G-H-P-S-Aib-K-P-P-P-K-NH2] (H-H[Aib]QGTFTSDLSKLK([γGlu-γGlu-AEEA-Palmitoyl])EKQRQ[Aib]EFIEWLKAGGHPS[Aib]KPPPK-NH2), the “Lag time before increase” value in data set [1] is reported as more than 45 h.

The values above are taken from patent US10519211B2, “Compounds as peptidic GLP1/glucagon/GIP receptor agonists” (SANOFI, priority 2016, dated 2019).
